Test results reported in patent US12227500B2, “Substituted pyrrolo[2,3-b]pyridines for suppressing toxic endoplasmic reticulum stress” (THE TRUSTEES OF COLUMBIA UNIVERSITY IN THE CITY OF NEW YORK, priority 2018, dated 2025).
Read-outs that look alike come from different tables or passages of the source.

Experiments:
Test in all cases: Radiolabeled ATP kinase assay, panel of 371 kinases (Table S6)
Assay type in all cases: biochemical
[1] = target: T1, panel of 371 human kinases (Homo sapiens, UniProt O00141); details: SGK1; 0.1 μM; 10 μM ATP; read-out: % Enzyme Activity (relative to DMSO controls)
T1 construct: purchased Reaction Biology Corp
Source text: (§1) ; FIG. 38C). […]. Further targeted analyses, such as genetic knock-down or knock-out, may be warranted to parse the role of these additional kinases in our model of neurodegeneration.

[2] = target: T2, panel of 371 human kinases (Homo sapiens, UniProt O00311); details: CDC7/DBF4; 0.1 μM; 10 μM ATP; read-out: % Enzyme Activity (relative to DMSO controls)
T2 construct: purchased Reaction Biology Corp
Source text: as §1

[3] = target: T3, panel of 371 human kinases (Homo sapiens, UniProt O15530); details: PDK1/PDPK1; 0.1 μM; 10 μM ATP; read-out: % Enzyme Activity (relative to DMSO controls)
T3 construct: purchased Reaction Biology Corp
Source text: as §1

[4] = target: T4, panel of 371 human kinases (Homo sapiens, UniProt P07947); details: YES/YES1; 0.1 μM; 10 μM ATP; read-out: % Enzyme Activity (relative to DMSO controls)
T4 construct: purchased Reaction Biology Corp
Source text: as §1

[5] = target: T5, panel of 371 human kinases (Homo sapiens, UniProt P29320); details: EPHA3; 0.1 μM; 10 μM ATP; read-out: % Enzyme Activity (relative to DMSO controls)
T5 construct: purchased Reaction Biology Corp
T5 sequence (P29320 21-983): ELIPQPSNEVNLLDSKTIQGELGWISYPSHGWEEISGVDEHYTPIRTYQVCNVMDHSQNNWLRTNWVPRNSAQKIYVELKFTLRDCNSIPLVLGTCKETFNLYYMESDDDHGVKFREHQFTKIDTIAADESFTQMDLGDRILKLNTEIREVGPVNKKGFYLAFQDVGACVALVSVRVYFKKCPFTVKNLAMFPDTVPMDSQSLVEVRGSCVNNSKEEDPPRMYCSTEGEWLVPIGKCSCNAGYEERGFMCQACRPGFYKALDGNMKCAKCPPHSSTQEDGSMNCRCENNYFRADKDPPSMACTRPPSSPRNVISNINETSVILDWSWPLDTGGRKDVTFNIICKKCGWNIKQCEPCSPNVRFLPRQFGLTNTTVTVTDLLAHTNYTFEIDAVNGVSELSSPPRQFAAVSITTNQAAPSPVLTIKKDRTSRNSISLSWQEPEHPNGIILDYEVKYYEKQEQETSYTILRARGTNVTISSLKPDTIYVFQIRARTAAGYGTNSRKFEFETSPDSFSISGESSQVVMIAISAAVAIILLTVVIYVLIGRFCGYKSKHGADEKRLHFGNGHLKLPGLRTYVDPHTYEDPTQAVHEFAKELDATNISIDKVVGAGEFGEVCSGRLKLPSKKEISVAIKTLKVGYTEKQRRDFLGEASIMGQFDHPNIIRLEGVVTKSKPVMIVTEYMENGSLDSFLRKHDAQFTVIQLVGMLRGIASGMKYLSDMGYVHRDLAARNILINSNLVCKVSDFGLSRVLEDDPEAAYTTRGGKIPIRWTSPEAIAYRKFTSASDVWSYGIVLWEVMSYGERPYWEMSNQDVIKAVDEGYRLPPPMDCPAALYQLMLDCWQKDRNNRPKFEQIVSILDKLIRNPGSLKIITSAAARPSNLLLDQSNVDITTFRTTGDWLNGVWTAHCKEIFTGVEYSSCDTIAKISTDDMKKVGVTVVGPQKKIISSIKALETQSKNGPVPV
Source text: as §1

[6] = target: T6, panel of 371 human kinases (Homo sapiens, UniProt P31749); details: AKT1; 0.1 μM; 10 μM ATP; read-out: % Enzyme Activity (relative to DMSO controls)
T6 construct: purchased Reaction Biology Corp
Source text: as §1

[7] = target: T7, panel of 371 human kinases (Homo sapiens, UniProt P36896); details: ALK4/ACVR1B; 0.1 μM; 10 μM ATP; read-out: % Enzyme Activity (relative to DMSO controls)
T7 construct: purchased Reaction Biology Corp
Source text: as §1

[8] = target: T8, panel of 371 human kinases (Homo sapiens, UniProt P54760); details: EPHB4; 0.1 μM; 10 μM ATP; read-out: % Enzyme Activity (relative to DMSO controls)
T8 construct: purchased Reaction Biology Corp
Source text: as §1

[9] = target: T9, panel of 371 human kinases (Homo sapiens, UniProt Q00526); details: 0.1 μM, 10 μM ATP, read-out: % Enzyme Activity (relative to DMSO controls)
T9 construct: purchased Reaction Biology Corp
T9 sequence (Q00526 whole entry): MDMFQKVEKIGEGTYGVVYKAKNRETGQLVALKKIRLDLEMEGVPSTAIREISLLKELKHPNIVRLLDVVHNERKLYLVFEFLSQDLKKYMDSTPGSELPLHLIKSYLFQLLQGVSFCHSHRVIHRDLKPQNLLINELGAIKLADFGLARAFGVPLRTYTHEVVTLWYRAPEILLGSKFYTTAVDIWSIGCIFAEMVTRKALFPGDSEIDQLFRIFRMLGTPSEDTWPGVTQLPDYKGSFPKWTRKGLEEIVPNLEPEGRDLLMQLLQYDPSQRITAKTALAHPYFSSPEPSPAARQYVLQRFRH
Source text: as §1

[10] = target: T10, panel of 371 human kinases (Homo sapiens, UniProt Q02763); details: TIE2/TEK; 0.1 μM; 10 μM ATP; read-out: % Enzyme Activity (relative to DMSO controls)
T10 construct: purchased Reaction Biology Corp
Source text: as §1

[11] = target: T11, panel of 371 human kinases (Homo sapiens, UniProt Q02779); details: MLK2/MAP3K10; 0.1 μM; 10 μM ATP; read-out: % Enzyme Activity (relative to DMSO controls)
T11 construct: purchased Reaction Biology Corp
Source text: as §1

[12] = target: T12, panel of 371 human kinases (Homo sapiens, UniProt Q04759); details: PKCtheta; 0.1 μM; 10 μM ATP; read-out: % Enzyme Activity (relative to DMSO controls)
T12 construct: purchased Reaction Biology Corp
Source text: as §1

[13] = target: T13, panel of 371 human kinases (Homo sapiens, UniProt Q13043); details: MST1/STK4; 0.1 μM; 10 μM ATP; read-out: % Enzyme Activity (relative to DMSO controls)
T13 construct: purchased Reaction Biology Corp
Source text: as §1

[14] = target: T14, panel of 371 human kinases (Homo sapiens, UniProt Q13557); details: CAMK2d; 0.1 μM; 10 μM ATP; read-out: % Enzyme Activity (relative to DMSO controls)
T14 construct: purchased Reaction Biology Corp
T14 sequence (Q13557 whole entry): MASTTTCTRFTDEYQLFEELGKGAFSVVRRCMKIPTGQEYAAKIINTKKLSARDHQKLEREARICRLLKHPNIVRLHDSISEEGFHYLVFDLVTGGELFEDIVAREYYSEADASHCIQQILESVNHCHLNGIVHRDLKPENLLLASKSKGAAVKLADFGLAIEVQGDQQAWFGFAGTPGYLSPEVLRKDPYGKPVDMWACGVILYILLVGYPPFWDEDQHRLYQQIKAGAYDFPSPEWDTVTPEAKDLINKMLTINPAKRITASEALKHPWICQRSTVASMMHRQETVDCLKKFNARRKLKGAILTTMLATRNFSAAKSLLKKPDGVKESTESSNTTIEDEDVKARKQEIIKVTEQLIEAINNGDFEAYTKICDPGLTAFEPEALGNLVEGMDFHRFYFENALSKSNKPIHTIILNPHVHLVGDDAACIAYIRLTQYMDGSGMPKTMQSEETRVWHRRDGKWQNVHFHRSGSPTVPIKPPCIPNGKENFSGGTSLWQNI
Source text: as §1

[15] = target: T15, panel of 371 human kinases (Homo sapiens, UniProt Q13882); details: BRK; 0.1 μM; 10 μM ATP; read-out: % Enzyme Activity (relative to DMSO controls)
T15 construct: purchased Reaction Biology Corp
Source text: as §1

[16] = target: T16, panel of 371 human kinases (Homo sapiens, UniProt Q13976); details: PKG1a; 0.1 μM; 10 μM ATP; read-out: % Enzyme Activity (relative to DMSO controls)
T16 construct: purchased Reaction Biology Corp
T16 sequence (Q13976 whole entry): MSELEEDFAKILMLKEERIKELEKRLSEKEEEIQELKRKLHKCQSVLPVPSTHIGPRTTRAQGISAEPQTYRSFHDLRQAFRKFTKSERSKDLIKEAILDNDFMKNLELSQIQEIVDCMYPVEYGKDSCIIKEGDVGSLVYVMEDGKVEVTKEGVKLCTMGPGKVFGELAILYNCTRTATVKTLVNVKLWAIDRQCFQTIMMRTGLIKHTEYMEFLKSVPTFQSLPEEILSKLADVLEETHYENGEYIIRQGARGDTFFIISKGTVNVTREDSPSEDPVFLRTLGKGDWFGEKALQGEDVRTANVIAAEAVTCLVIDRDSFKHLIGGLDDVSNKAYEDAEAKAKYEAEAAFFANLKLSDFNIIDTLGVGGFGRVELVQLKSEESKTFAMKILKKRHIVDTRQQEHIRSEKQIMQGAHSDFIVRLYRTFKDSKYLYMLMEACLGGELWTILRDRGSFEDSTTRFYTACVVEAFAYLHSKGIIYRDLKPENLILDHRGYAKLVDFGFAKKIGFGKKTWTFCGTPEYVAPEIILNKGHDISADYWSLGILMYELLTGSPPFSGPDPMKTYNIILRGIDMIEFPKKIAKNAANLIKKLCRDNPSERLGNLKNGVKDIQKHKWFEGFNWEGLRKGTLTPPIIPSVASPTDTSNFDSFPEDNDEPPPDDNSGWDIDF
Source text: as §1

[17] = target: T17, panel of 371 human kinases (Homo sapiens, UniProt Q8IVT5); details: KSR1; 0.1 μM; 10 μM ATP; read-out: % Enzyme Activity (relative to DMSO controls)
T17 construct: purchased Reaction Biology Corp
T17 sequence (Q8IVT5 whole entry): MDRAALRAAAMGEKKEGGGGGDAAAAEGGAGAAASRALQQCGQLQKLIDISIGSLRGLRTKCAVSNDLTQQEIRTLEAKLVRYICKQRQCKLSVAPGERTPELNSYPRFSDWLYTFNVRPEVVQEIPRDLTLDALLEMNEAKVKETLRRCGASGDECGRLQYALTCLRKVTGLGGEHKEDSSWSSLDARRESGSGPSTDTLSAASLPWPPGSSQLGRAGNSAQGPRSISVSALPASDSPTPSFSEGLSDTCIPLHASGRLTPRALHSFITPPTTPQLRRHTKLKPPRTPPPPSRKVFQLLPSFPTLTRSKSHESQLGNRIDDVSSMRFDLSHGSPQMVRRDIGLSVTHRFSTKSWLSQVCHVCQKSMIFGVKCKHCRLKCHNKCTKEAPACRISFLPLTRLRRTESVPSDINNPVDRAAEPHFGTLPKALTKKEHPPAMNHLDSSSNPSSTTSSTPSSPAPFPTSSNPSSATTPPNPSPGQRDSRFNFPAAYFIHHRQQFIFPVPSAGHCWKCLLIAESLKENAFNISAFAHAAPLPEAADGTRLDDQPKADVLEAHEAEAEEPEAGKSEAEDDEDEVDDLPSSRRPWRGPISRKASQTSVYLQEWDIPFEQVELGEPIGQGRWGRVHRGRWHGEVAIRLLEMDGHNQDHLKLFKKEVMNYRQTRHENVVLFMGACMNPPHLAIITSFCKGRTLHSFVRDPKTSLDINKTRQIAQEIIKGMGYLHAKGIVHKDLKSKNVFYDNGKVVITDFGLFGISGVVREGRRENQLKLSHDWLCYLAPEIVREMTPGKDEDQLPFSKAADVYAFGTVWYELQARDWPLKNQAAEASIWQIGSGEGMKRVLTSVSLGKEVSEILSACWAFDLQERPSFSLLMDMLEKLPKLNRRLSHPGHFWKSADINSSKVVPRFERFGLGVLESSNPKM
Source text: as §1

[18] = target: T18, panel of 371 human kinases (Homo sapiens, UniProt Q8N568); details: DCAMKL2; 0.1 μM; 10 μM ATP; read-out: % Enzyme Activity (relative to DMSO controls)
T18 construct: purchased Reaction Biology Corp
T18 sequence (Q8N568 whole entry, looked up): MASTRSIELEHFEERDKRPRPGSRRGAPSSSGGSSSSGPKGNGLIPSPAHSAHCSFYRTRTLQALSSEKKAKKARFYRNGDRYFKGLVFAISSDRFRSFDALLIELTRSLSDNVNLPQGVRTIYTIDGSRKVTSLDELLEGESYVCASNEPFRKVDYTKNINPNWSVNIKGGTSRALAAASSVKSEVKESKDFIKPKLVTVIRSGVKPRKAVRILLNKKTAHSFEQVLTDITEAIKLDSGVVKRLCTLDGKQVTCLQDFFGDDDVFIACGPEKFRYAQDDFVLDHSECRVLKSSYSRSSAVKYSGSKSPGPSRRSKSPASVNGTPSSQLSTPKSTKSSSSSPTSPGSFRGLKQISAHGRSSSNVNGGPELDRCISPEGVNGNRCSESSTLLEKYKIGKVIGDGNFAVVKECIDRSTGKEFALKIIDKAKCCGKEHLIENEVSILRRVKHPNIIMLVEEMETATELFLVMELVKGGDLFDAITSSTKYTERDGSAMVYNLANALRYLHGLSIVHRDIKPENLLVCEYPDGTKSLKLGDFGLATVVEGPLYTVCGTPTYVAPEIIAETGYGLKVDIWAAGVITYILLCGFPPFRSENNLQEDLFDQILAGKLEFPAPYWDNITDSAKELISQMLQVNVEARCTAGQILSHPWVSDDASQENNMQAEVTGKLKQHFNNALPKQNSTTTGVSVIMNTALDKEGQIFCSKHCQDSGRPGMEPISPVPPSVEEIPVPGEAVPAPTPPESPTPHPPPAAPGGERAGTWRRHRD
Source text: as §1

[19] = target: T19, panel of 371 human kinases (Homo sapiens, UniProt Q8N752); details: CK1a1L; 0.1 μM; 10 μM ATP; read-out: % Enzyme Activity (relative to DMSO controls)
T19 construct: purchased Reaction Biology Corp
Source text: as §1

[20] = target: T20, panel of 371 human kinases (Homo sapiens, UniProt Q8TD08); details: ERK7/MAPK15; 0.1 μM; 10 μM ATP; read-out: % Enzyme Activity (relative to DMSO controls)
T20 construct: purchased Reaction Biology Corp
T20 sequence (Q8TD08 whole entry): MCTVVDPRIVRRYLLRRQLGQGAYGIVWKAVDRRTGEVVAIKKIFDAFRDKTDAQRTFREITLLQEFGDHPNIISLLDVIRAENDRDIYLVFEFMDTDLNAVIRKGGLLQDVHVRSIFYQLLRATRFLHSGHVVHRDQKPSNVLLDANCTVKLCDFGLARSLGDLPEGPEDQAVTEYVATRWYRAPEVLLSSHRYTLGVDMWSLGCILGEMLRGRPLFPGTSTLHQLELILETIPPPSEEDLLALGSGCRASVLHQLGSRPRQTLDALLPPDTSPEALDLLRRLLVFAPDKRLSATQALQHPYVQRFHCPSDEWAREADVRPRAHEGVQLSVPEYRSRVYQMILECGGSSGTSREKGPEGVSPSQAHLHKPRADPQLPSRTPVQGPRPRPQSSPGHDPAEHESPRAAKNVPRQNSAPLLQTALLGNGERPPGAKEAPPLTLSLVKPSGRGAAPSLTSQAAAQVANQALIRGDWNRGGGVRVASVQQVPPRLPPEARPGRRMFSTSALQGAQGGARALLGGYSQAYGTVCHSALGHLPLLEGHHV
Source text: as §1

[21] = target: T21, panel of 371 human kinases (Homo sapiens, UniProt Q8TD19); details: NEK9; 0.1 μM; 10 μM ATP; read-out: % Enzyme Activity (relative to DMSO controls)
T21 construct: purchased Reaction Biology Corp
Source text: as §1

[22] = target: T22, panel of 371 human kinases (Homo sapiens, UniProt Q9H3Y6); details: SRMS; 0.1 μM; 10 μM ATP; read-out: % Enzyme Activity (relative to DMSO controls)
T22 construct: purchased Reaction Biology Corp
Source text: as §1

[23] = target: T23, panel of 371 human kinases (Homo sapiens, UniProt Q9UKI8); details: TLK1; 0.1 μM; 10 μM ATP; read-out: % Enzyme Activity (relative to DMSO controls)
T23 construct: purchased Reaction Biology Corp
Source text: as §1

[24] = target: T24, panel of 371 human kinases (Homo sapiens, UniProt Q9UQB9); details: Aurora C; 0.1 μM; 10 μM ATP; read-out: % Enzyme Activity (relative to DMSO controls)
T24 construct: purchased Reaction Biology Corp
T24 sequence (Q9UQB9 whole entry): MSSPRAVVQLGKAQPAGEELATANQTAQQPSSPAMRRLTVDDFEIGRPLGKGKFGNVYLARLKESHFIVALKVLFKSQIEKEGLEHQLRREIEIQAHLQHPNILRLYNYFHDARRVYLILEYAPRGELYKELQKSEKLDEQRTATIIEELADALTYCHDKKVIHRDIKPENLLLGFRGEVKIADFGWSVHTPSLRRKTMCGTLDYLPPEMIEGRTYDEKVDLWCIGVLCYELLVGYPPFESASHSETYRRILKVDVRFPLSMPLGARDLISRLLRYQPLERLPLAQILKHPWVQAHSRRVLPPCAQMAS
Source text: as §1

| Structure (SMILES) | remaining activity at 0.1 µM [1] [%] | remaining activity at 0.1 µM [2] [%] | remaining activity at 0.1 µM [3] [%] | remaining activity at 0.1 µM [4] [%] | remaining activity at 0.1 µM [5] [%] | remaining activity at 0.1 µM [6] [%] | remaining activity at 0.1 µM [7] [%] | remaining activity at 0.1 µM [8] [%] | remaining activity at 0.1 µM ([9]; CDK3/cyclin E2) [%] | remaining activity at 0.1 µM ([9]; CDK3/cyclin E) [%] | remaining activity at 0.1 µM [10] [%] | remaining activity at 0.1 µM [11] [%] | remaining activity at 0.1 µM [12] [%] | remaining activity at 0.1 µM [13] [%] | remaining activity at 0.1 µM [14] [%] | remaining activity at 0.1 µM [15] [%] | remaining activity at 0.1 µM [16] [%] | remaining activity at 0.1 µM [17] [%] | remaining activity at 0.1 µM [18] [%] | remaining activity at 0.1 µM [19] [%] | further results |
| --- | --- | --- | --- | --- | --- | --- | --- | --- | --- | --- | --- | --- | --- | --- | --- | --- | --- | --- | --- | --- | --- |
| OCCN1CCN(Cc2ccc(-c3cnc4[nH]cc(-c5cccc(Cl)c5)c4c3)cc2)CC1 [Compound 12k, 2-(4-(4-(3-(3-Chlorophenyl)-1H-pyrrolo[2,3-b]pyridin-5-yl)benzyl)piperazin-1-yl)ethan-1-ol] | 99.6 | 98.3 | 92.7 | 109 | 98.2 | 101 | 95.9 | 97.5 | 90.2 | 97 | 103 | 73.1 | 94.6 | 75.9 | 81.3 | 95 | 108 | 97.3 | 87.6 | 107 | remaining activity at 0.1 µM [20]: 90.4%; remaining activity at 0.1 µM [21]: 95.1%; remaining activity at 0.1 µM [22]: 103%; remaining activity at 0.1 µM [23]: 102%; remaining activity at 0.1 µM [24]: 97.3% |
| CN1CCN(Cc2ccc(-c3cnc4[nH]cc(-c5ccc6[nH]ccc6c5)c4c3)cc2)CC1 [Compound 1, 3-(1H-Indol-5-yl)-5-(4-((4-methylpiperazin-1-yl)methyl)phenyl)-1H-pyrrolo[2,3-b]pyridine, reference compound] | 96 | 100 | 110 | 96.6 | 99.8 | 97 | 100 | 91.6 | 92.6 | 92.9 | 95 | 84.1 | 90.8 | 80 | 97 | 86.4 | 101 | 98 | 87.1 | 94.8 | remaining activity at 0.1 µM [20]: 109%; remaining activity at 0.1 µM [21]: 101%; remaining activity at 0.1 µM [22]: 104%; remaining activity at 0.1 µM [23]: 102%; remaining activity at 0.1 µM [24]: 110% |
